The values that follow come from paper PMC5097887 (European journal of medicinal chemistry, 2016).

SMILES strings stand for the structures.

In general, Ki refers to a dissociation constant, usually derived from enzyme kinetics or from competition with a known ligand. A high value points to a looser hold on the target. In general, logD refers to the decadic logarithm of the distribution of all forms, ionised or not, between an organic phase and buffer at a given pH. Higher therefore signals higher lipophilicity.

The target of one series is rat brain TSPO (Rattus norvegicus, UniProt P16257). In kind it is binding.
Details: not given
As to `CC(Oc1cc(-n2cccc2)nc2ccccc12)C(=O)N(C)c1ccccc1` (centres unmarked) [Ligand 29, 2-[2-(1H-Pyrrol-1-yl)quinolin-4-yloxy]-N-methyl-N-phenylpropanamide], the affinity corresponds to a Ki of 0.22 ± 0.03 nM.
Turning to `COc1cc(OC(C)C(=O)N(C)c2ccccc2)c2cccnc2n1` (centres unmarked) [Ligand 27, 2-(2-Methoxy-1,8-naphthyridin-4-yloxy)-N-methyl-N-phenylpropanamide], the Ki was determined as 7.8 ± 0.6 nM.
In the case of `CC(On1c(-c2ccccn2)nc2ccccc21)C(=O)N(C)C(C)C` (centres unmarked) [Ligand 36, N-Isopropyl-N-methyl-2-(2-(pyridin-2-yl)-1H-benzo[d]imidazol-1-yloxy)propanamide], the Ki was above 1000 nM.
`CN1C(=O)C(Oc2cc(-c3ccccn3)nc3ccccc23)CC1(C)C` (centres unmarked) [Ligand 33, 1,5,5-Trimethyl-3-[2-(pyridin-2-yl)quinolin-4-yloxy]pyrrolidin-2-one]: the Ki is above 1000 nM.
Still for that read-out and setting: next, `CC(Oc1cc(-c2ccccn2)nc2ccccc12)C(=O)N(C)C(C)C` (centres unmarked) [Ligand 22, N-Isopropyl-N-methyl-2-[2-(pyridin-2-yl)quinolin-4-yloxy]propanamide]: 0.76 ± 0.09 nM; `CC(Oc1cc(-c2ccccn2)nc2ccccc12)C(=O)N(C)c1ccc(F)cc1` (centres unmarked) [Ligand 23, N-(4-Fluorophenyl)-N-methyl-2-[2-(pyridin-2-yl)quinolin-4-yloxy]propanamide]: 0.09 ± 0.01 nM; `CC(Oc1cc(-c2ccccn2)nc2ncccc12)C(=O)N(C)c1ccccc1` (centres unmarked) [Ligand 20, N-Methyl-N-phenyl-2-[2-(pyridin-2-yl)-1,8-naphthyridin-4-yloxy]propanamide]: 0.5 ± 0.1 nM.
On to `CC(C)N1CCC(Oc2cc(-c3ccccn3)nc3ccccc23)C1=O` (centres unmarked) [Ligand 34, 1-Isopropyl-3-[2-(pyridin-2-yl)quinolin-4-yloxy]pyrrolidin-2-one], for which the Ki was above 1000 nM.
`CC(Oc1cc(-c2ncccn2)nc2ccccc12)C(=O)N(C)c1ccccc1` (centres unmarked) [Ligand 21, N-Methyl-N-phenyl-2-[2-(pyrimidin-2-yl)quinolin-4-yl]oxypropanamide] came in with a Ki of 0.53 ± 0.08 nM.

Still in this series, the particulars now being: locked amide rotamers of ligand 22.
Take `O=[N+]([O-])c1ccccc1NCc1ccccn1` [Ligand 35, 2-Nitro-N-(pyridin-2-ylmethyl)aniline]: the “binding affinity for TSPO (in words)” value is listed as “lacked any appreciable binding affinity”.
With `CC(C)N1CCC(Oc2cc(-c3ccccn3)nc3ccccc23)C1=O` (centres unmarked) [Ligand 34, 1-Isopropyl-3-[2-(pyridin-2-yl)quinolin-4-yloxy]pyrrolidin-2-one], the “binding affinity for TSPO (in words)” value is reported as “lacked any appreciable binding affinity”.

The series is the same for the next values; noted with them: pKi minus clogD.
`CC(Oc1cc(-n2cccc2)nc2ccccc12)C(=O)N(C)c1ccccc1` (centres unmarked) [Ligand 29, 2-[2-(1H-Pyrrol-1-yl)quinolin-4-yloxy]-N-methyl-N-phenylpropanamide] gave a LipE of 6.13 ± 0.07.
In turn, `COc1cc(OC(C)C(=O)N(C)c2ccccc2)c2cccnc2n1` (centres unmarked) [Ligand 27, 2-(2-Methoxy-1,8-naphthyridin-4-yloxy)-N-methyl-N-phenylpropanamide] showed a LipE of 6.09 ± 0.04.
Same read-out and setting: next, `CC(On1c(-c2ccccn2)nc2ccccc21)C(=O)N(C)C(C)C` (centres unmarked) [Ligand 36, N-Isopropyl-N-methyl-2-(2-(pyridin-2-yl)-1H-benzo[d]imidazol-1-yloxy)propanamide]: below 2.47; `CN1C(=O)C(Oc2cc(-c3ccccn3)nc3ccccc23)CC1(C)C` (centres unmarked) [Ligand 33, 1,5,5-Trimethyl-3-[2-(pyridin-2-yl)quinolin-4-yloxy]pyrrolidin-2-one]: below 3.93.
On the same count and under the same terms, next, `CC(Oc1cc(-c2ccccn2)nc2ccccc12)C(=O)N(C)C(C)C` (centres unmarked) [Ligand 22, N-Isopropyl-N-methyl-2-[2-(pyridin-2-yl)quinolin-4-yloxy]propanamide]: 6.58 ± 0.05.
In the case of `CC(Oc1cc(-c2ccccn2)nc2ccccc12)C(=O)N(C)c1ccc(F)cc1` (centres unmarked) [Ligand 23, N-(4-Fluorophenyl)-N-methyl-2-[2-(pyridin-2-yl)quinolin-4-yloxy]propanamide], the LipE stood at 5.80 ± 0.06.
The same measure, in the same setting: to `CC(Oc1cc(-c2ccccn2)nc2ncccc12)C(=O)N(C)c1ccccc1` (centres unmarked) [Ligand 20, N-Methyl-N-phenyl-2-[2-(pyridin-2-yl)-1,8-naphthyridin-4-yloxy]propanamide] belongs 6.5 ± 0.1.
Same read-out and setting: to `CC(C)N1CCC(Oc2cc(-c3ccccn3)nc3ccccc23)C1=O` (centres unmarked) [Ligand 34, 1-Isopropyl-3-[2-(pyridin-2-yl)quinolin-4-yloxy]pyrrolidin-2-one] belongs below 3.36.
`CC(Oc1cc(-c2ncccn2)nc2ccccc12)C(=O)N(C)c1ccccc1` (centres unmarked) [Ligand 21, N-Methyl-N-phenyl-2-[2-(pyrimidin-2-yl)quinolin-4-yl]oxypropanamide] registered a LipE of 6.6 ± 0.1.

Tested on in the next series: not given
To be noted: computed value; Table 1 footnote b; cited from earlier work.
In the case of `CCC(C)N(C)C(=O)c1cc2ccccc2c(-c2ccccc2Cl)n1` (centres unmarked) [Ligand 1, PK11195], the cLogD is recorded as 3.97.

Tested on in a further series: not given
Type of series: physicochemical. To be noted: n-octanol/sodium phosphate buffer, pH 7.4.
In turn, `CC(Oc1cc(-c2ccccn2)nc2ncccc12)C(=O)N(C)c1ccccc1` (centres unmarked) [Ligand 20, N-Methyl-N-phenyl-2-[2-(pyridin-2-yl)-1,8-naphthyridin-4-yloxy]propanamide] had a pH-dependent lipophilicity (logD) of 2.48.
Regarding `CC(Oc1cc(-c2ncccn2)nc2ccccc12)C(=O)N(C)c1ccccc1` (centres unmarked) [Ligand 21, N-Methyl-N-phenyl-2-[2-(pyrimidin-2-yl)quinolin-4-yl]oxypropanamide], the logD was 2.48.
